Read-outs that look alike come from different tables or passages of the source.
Assays:
[1] = target: T1, chimpanzee EP4 receptor (Pan troglodytes, UniProt Q95KZ0); assay: Competition binding of 3H-PGE2 on CHO-K1 cells transiently transfected with chimpanzee EP4
Protocol: Competitive binding of various prostanoid ligands for EP1-EP4 with ^3H-PGE2 on CHO cells transiently transfected with chimpanzee EP4. Each indicated concentration of (▪) PGE2, (●) sulprostone, (▴) butaprost, or (♦) EP4SL was incubated with three wells of a 24-well dish of CHO cells transiently transfected with chimpanzee EP4 for 1 hr on ice in the presence of 3 nM 3H-PGE2. Following washing and solubilization of the cells, specific binding was determined by scintillation counting. Error bars represent one standard deviation.
The day prior to transfection, CHO-K1 cells were plated in 100 mm dishes (Corning, Corning, N.Y.) at 6×10^4 cells/cm^2 in DMEM/F12 (Life Technologies) supplemented with 10% fetal calf serum (FCS; Gemini Bio-Products, Calabasas, Calif.). The next day, each plate of cells was transfected with 15 g chimpanzee EP4-pCR3.1-Uni plasmid DNA using Lipofectamine 2000 reagent (Life Technologies) according to the manufacturer's protocol. Briefly, 451 of Lipofectamine 2000 reagent was diluted into 1.5 ml of D-MEM/F12 without serum and incubated at room temperature for 5 minutes. During this time, 15g chimpanzee EP4-pCR3.1-Uni plasmid DNA was diluted into 0.5 ml of D-MEM/F12 without serum. The diluted Lipofectamine 2000 reagent and the DNA were then mixed and incubated an additional 20 minutes at room temperature. 8 ml D-MEM/F12 without serum was then added to each reaction and carefully added to a plate of CHO cell previously rinsed with serum free D-M EM/F12. These cells were then incubated at 37° C. with 5% CO2 for 6 hr at which time 1 ml FCS was added per plate and the incubation continued at 37° C. with 5% CO2 overnight. The following day, the cells were split to either 24-well or 96-well dishes for use in ligand binding and/or secondary signaling analyses.
Whole cell binding reactions (0.2 ml per well) containing 3 nM ^3H-PGE2 plus unlabeled competitor (10^−5 to 10^−10 M) were performed on ice for 1 hr. Unbound radioligand was removed by extensive washing, the cells were solubilized with 1% SDS, and the bound ^3H-PGE2 quantitated by scintillation counting.

[2] = tested on: parental CHO-K1 cells; assay: cAMP levels in parental (untransfected) CHO-K1 cells; assay type: cell-based, Chinese hamster; conditions: parental CHO-K1 cells (not transfected)
Protocol: The protein-coding region of chimpanzee EP4 was contained in open reading frame of 1470 bp and encodes a protein of 490 amino acids with a predicted molecular weight of 53.4 kD.
(§1) Cells were then rinsed once with PBS and the appropriate concentrations of test compounds (diluted in assay buffer: 5 mM MgCl2; 30 mM Hepes pH 7.4; 0.3 mM 3-isobutyl-1-methylxanthine, (IBMX; Calbiochem, La Jolla, Calif.); 1 mg/ml dextrose) were added. The plate was incubated at 37° C. for 12 minutes, after which 10 μl lysis buffer was added to each well to terminate the reaction. SPA reagent (RPA559, Amersham, Piscataway, N.J.) was prepared according to the manufacturer's protocol and 120 μl was added to each well. Assay plates were then counted in a Wallac Trilux counter (Perkin Elmer, Boston, Mass.).

[3] = target: T1, chimpanzee EP4 receptor; assay: cAMP accumulation (SPA) in CHO cells transiently transfected with chimpanzee EP4; assay type: cell-based; conditions: 12 minutes treatment, IBMX present, SPA kit
Protocol: Error bars represent one standard deviation.
Secondary signaling in CHO cells expressing chimpanzee EP4 was measured by cAMP accumulation. CHO cells transiently transfected with chimpanzee EP4 were treated for 12 minutes with various concentrations of PGE2 in the presence of 2 mM IBMX. Accumulation of intracellular cAMP was measured at the end of the treatment period by use of a commercially available scintillation proximity assay (SPA) kit (Amersham, Arlington Heights, Ill.).
as §1

T1 sequence (Q95KZ0 whole entry): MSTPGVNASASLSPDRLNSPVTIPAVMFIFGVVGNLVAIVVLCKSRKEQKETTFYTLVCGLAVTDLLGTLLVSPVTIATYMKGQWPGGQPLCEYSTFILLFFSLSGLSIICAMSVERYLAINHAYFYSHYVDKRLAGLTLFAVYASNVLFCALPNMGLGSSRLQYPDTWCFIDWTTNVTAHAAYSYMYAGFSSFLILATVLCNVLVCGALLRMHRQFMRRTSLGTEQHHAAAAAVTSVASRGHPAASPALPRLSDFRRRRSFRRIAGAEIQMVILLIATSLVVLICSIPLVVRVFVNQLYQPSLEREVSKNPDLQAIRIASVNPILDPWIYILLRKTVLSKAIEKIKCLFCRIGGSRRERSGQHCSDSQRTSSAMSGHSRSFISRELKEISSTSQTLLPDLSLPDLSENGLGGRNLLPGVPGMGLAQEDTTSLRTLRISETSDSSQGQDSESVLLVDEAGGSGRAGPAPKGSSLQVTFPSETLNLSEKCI

| Compound | binding to the chimpanzee EP4 receptor (competition with 3H-PGE2) ([1]; CHO-K1 cells transiently transfected with chimpanzee EP4, competitor 10^-5 to 10^-10 M) | IC50 ([1]; read-out: IC50 for displacement of 3H-PGE2 binding, whole CHO-K1 cells transiently transfected with chimpanzee EP4, 3 nM 3H-PGE2, 1 hr on ice) [µM] | increased levels of cAMP [2] | EC50 [3] [µM] | IC50 [1] [µM] |
| --- | --- | --- | --- | --- | --- |
| CCCC1([C@H](O)C/C=C/[C@H]2[C@H](O)CC(=O)[C@@H]2CCCCCCC(=O)OC)CCC1 [butaprost] | did not bind |  |  |  |  |
| CCCCC[C@H](O)/C=C/[C@H]1[C@H](O)CC(=O)[C@@H]1C/C=C\CCCC(=O)O [PGE2, Prostaglandin E2] |  | 0.0025 | not in parental CHO-K1 cells | 0.0089 |  |
| O=C(O)CCCCCCN1C(=O)CCC1CCC(O)Cc1ccccc1 (stereo not shown) [EP4SL, 7-[2-(3-hydroxy-4-phenyl-butyl)-5-oxo-pyrrolidin-1-yl]-heptanoic acid] |  |  | not in parental CHO-K1 cells | 0.56 | 0.3 |

From patent US20030059890A1, “DNA encoding the chimpanzee prostaglandin E2 receptor EP4 subtype” (Pfizer Inc., priority 2001, published 2003)
